Measured values taken from patent publication US20250186433A1, “ACSS2 INHIBITORS AND METHODS OF USE THEREOF” (EpiVario, Inc., priority 2017, published 2025).

The compounds below were run against ACSS2 (Homo sapiens, UniProt Q9NR19) (assay: biochemical).
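Note: Pyrophosphatase-coupled ACSS2 enzyme assay, 10 nM protein incubated 90 min at 37 °C with ATP, CoA and acetate, released phosphate read by Biomol Green absorbance at 620 nm.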
Method: The assay is based on a coupling reaction with Pyrophosphatase: ACSS2 is converting ATP+CoA+Acetate=>AMP+pyrophosphate+Acetyl-CoA (Ac-CoA). Pyrophosphatase converts pyrophosphate, a product of the ACSS2 reaction, to phosphate which can be detected by measuring the absorbance at 620 nm after incubation with the Biomol green reagent (Enzo life Science, BML-AK111).
At the end of the reaction, Biomol Green was added for 30 minutes at RT and the activity was measured by reading the absorbance at 620 nm.

Chain of ACSS2 (Q9NR19 whole entry): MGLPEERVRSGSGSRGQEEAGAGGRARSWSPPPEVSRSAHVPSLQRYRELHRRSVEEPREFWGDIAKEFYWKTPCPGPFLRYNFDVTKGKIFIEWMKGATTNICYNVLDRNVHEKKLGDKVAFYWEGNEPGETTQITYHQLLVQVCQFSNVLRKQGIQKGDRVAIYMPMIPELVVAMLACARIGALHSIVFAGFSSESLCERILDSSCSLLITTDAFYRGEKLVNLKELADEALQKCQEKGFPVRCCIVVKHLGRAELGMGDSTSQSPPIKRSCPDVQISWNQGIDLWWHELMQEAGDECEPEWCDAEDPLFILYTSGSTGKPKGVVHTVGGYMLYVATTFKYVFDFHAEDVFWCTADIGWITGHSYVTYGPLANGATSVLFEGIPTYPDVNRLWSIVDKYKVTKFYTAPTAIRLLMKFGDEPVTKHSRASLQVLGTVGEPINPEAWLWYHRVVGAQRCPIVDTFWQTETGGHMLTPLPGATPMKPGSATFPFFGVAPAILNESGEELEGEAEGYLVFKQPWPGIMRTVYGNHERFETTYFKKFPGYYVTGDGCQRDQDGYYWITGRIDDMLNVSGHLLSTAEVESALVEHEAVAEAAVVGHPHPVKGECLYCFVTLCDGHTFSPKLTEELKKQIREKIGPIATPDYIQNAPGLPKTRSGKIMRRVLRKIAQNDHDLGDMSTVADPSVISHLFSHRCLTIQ

Row | IC50 [nM] | Compound
1 | 0.01 to 6 | CCC(F)(F)c1cccc(NC(=O)C2C(=O)N(c3ccc4nccnc4c3)N=C2C)c1 (stereo not drawn) [compound 488, N-(3-(1,1-difluoropropyl)phenyl)-3-methyl-5-oxo-1-(quinoxalin-6-yl)-4,5-dihydro-1H-pyrazole-4-carboxamide]
2 | 0.01 to 6 | CCC(F)(F)c1cccc(NC(=O)C2C(=O)N(c3cccc4occc34)N=C2C)c1 (stereo not drawn) [compound 492, 1-(benzofuran-4-yl)-N-(3-(1,1-difluoropropyl)phenyl)-3-methyl-5-oxo-4,5-dihydro-1H-pyrazole-4-carboxamide]
3 | 0.01 to 6 | CCC(F)(F)c1cccc(NC(=O)C2C(=O)N(c3ccc4ccn(C(=O)c5cccc(O)c5)c4c3)N=C2C)c1 (stereo not drawn) [compound 493, N-(3-(1,1-difluoropropyl)phenyl)-1-(1-(3-hydroxybenzoyl)-1H-indol-6-yl)-3-methyl-5-oxo-4,5-dihydro-1H-pyrazole-4-carboxamide]
4 | 0.01 to 6 | C/C=C(/F)c1cccc(NC(=O)C2C(=O)N(c3ccc(OC(F)F)cc3)N=C2C)c1 (stereo not drawn) [compound 495, (E)-1-(4-(difluoromethoxy)phenyl)-N-(3-(1-fluoroprop-1-en-1-yl)phenyl)-3-methyl-5-oxo-4,5-dihydro-1H-pyrazole-4-carboxamide]
5 | 0.01 to 6 | CCC(F)(F)c1cccc(NC(=O)C2C(=O)N(c3ccc4c(C)cn(C)c4c3)N=C2C)c1 (stereo not drawn) [compound 497, N-(3-(1,1-difluoropropyl)phenyl)-1-(1,3-dimethyl-1H-indol-6-yl)-3-methyl-5-oxo-4,5-dihydro-1H-pyrazole-4-carboxamide]
6 | 0.01 to 6 | CCC(F)(F)c1cccc(NC(=O)C2C(=O)N(c3ccc(C#N)cc3)N=C2C)c1 (stereo not drawn) [compound 501, 1-(4-cyanophenyl)-N-(3-(1,1-difluoropropyl)phenyl)-3-methyl-5-oxo-4,5-dihydro-1H-pyrazole-4-carboxamide]
7 | 0.01 to 6 | CCC(F)(F)c1cccc(NC(=O)C2C(=O)N(c3ccc4cc(C)n(C)c4c3)N=C2C)c1 (stereo not drawn) [compound 502, N-[3-(1,1-difluoropropyl)phenyl]-1-(1,2-dimethylindol-6-yl)-3-methyl-5-oxo-4H-pyrazole-4-carboxamide]
8 | 100 to 1000 | CC1=NN(c2ccc(OC(F)F)cc2)C(=O)C1C(=O)Nc1ccnc(C#N)c1 (stereo not drawn) [compound 504, N-(2-cyanopyridin-4-yl)-1-(4-(difluoromethoxy)phenyl)-3-methyl-5-oxo-4,5-dihydro-1H-pyrazole-4-carboxamide]
9 | 0.01 to 6 | CCC(F)(F)c1cccc(NC(=O)C2C(=O)N(c3ccc(OC)cc3F)N=C2C)c1 (stereo not drawn) [compound 505, N-(3-(1,1-difluoropropyl)phenyl)-1-(2-fluoro-4-methoxyphenyl)-3-methyl-5-oxo-4,5-dihydro-1H-pyrazole-4-carboxamide]
10 | 6 to 100 | CCC(F)(F)c1cc(NC(=O)C2C(=O)N(c3ccc(OC(F)F)cc3)N=C2C)ccn1 (stereo not drawn) [compound 506, 1-(4-(difluoromethoxy)phenyl)-N-(2-(1,1-difluoropropyl)pyridin-4-yl)-3-methyl-5-oxo-4,5-dihydro-1H-pyrazole-4-carboxamide]
11 | 0.01 to 6 | CCC(F)(F)c1cccc(NC(=O)C2C(=O)N(c3ccc4ccn(C(=O)c5ccccc5O)c4c3)N=C2C)c1 (stereo not drawn) [compound 509, N-(3-(1,1-difluoropropyl)phenyl)-1-(1-(2-hydroxybenzoyl)-1H-indol-6-yl)-3-methyl-5-oxo-4,5-dihydro-1H-pyrazole-4-carboxamid]
12 | 100 to 1000 | CCC(F)(F)c1cccc(NC(=O)C2C(=O)N(c3cnc(OC)cn3)N=C2C)c1 (stereo not drawn) [compound 512, N-(3-(1,1-difluoropropyl)phenyl)-1-(5-methoxypyrazin-2-yl)-3-methyl-5-oxo-4,5-dihydro-1H-pyrazole-4-carboxamide]
13 | 6 to 100 | CCC(F)(F)c1cccc(NC(=O)C2C(=O)N(c3ccc(OC)cc3C(C)=O)N=C2C)c1 (stereo not drawn) [compound 516, 1-(2-acetyl-4-methoxyphenyl)-N-(3-(1,1-difluoropropyl)phenyl)-3-methyl-5-oxo-4,5-dihydro-1H-pyrazole-4-carboxamide]
14 | 6 to 100 | CCC(F)(F)c1cccc(NC(=O)C2C(=O)N(c3ccc4ccnnc4c3)N=C2C)c1 (stereo not drawn) [compound 524, 1-(cinnolin-7-yl)-N-(3-(1,1-difluoropropyl)phenyl)-3-methyl-5-oxo-4,5-dihydro-1H-pyrazole-4-carboxamide]
15 | 0.01 to 6 | CCC(F)(F)c1cccc(NC(=O)C2C(=O)N(c3ccc(OC)c(-c4ccnc(C)c4)c3)N=C2C)c1 (stereo not drawn) [compound 530, N-(3-(1,1-difluoropropyl)phenyl)-1-(4-methoxy-3-(2-methylpyridin-4-yl)phenyl)-3-methyl-5-oxo-4,5-dihydro-1H-pyrazole-4-carboxamide]
16 | 0.01 to 6 | CCC(F)(F)c1cccc(NC(=O)C2C(=O)N(c3ccc(OC)c(-c4ccncc4C)c3)N=C2C)c1 (stereo not drawn) [compound 532, N-(3-(1,1-difluoropropyl)phenyl)-1-(4-methoxy-3-(3-methylpyridin-4-yl)phenyl)-3-methyl-5-oxo-4,5-dihydro-1H-pyrazole-4-carboxamide]
17 | 0.01 to 6 | CCC(F)(F)c1cccc(NC(=O)C2C(=O)N(c3ccc(OC)c(-c4ccc(C)cn4)c3)N=C2C)c1 (stereo not drawn) [compound 534, N-(3-(1,1-difluoropropyl)phenyl)-1-(4-methoxy-3-(5-methylpyridin-2-yl)phenyl)-3-methyl-5-oxo-4,5-dihydro-1 H-pyrazole-4-carboxamide]
18 | 0.01 to 6 | CCC(F)(F)c1cccc(NC(=O)C2C(=O)N(c3ccc(OC)c(-c4ncccc4C)c3)N=C2C)c1 (stereo not drawn) [compound 535, N-(3-(1,1-difluoropropyl)phenyl)-1-(4-methoxy-3-(3-methylpyridin-2-yl)phenyl)-3-methyl-5-oxo-4,5-dihydro-1H-pyrazole-4-carboxamide]

Further lines, the compound ahead of its results:

Row | Compound | IC50 [nM]
19 | CCC(F)(F)c1cccc(NC(=O)C2C(=O)N(c3cnc(Cl)cn3)N=C2C)c1 (stereo not drawn) [compound 489, 1-(5-chloropyrazin-2-yl)-N-(3-(1,1-difluoropropyl)phenyl)-3-methyl-5-oxo-4,5-dihydro-1H-pyrazole-4-carboxamide] | 0.01 to 6
20 | CCC(F)(F)c1cccc(NC(=O)C2C(=O)N(c3ccc(Cl)nn3)N=C2C)c1 (stereo not drawn) [compound 490, 1-(6-chloropyridazin-3-yl)-N-(3-(1,1-difluoropropyl)phenyl)-3-methyl-5-oxo-4,5-dihydro-1H-pyrazole-4-carboxamide] | 6 to 100
21 | CCC(F)(F)c1cccc(NC(=O)C2C(=O)N(c3ccc4ccoc4c3)N=C2C)c1 (stereo not drawn) [compound 491, 1-(benzofuran-6-yl)-N-(3-(1,1-difluoropropyl)phenyl)-3-methyl-5-oxo-4,5-dihydro-1H-pyrazole-4-carboxamide] | 0.01 to 6
22 | C/C=C(\F)c1cccc(NC(=O)C2C(=O)N(c3ccc(OC(F)F)cc3)N=C2C)c1 (stereo not drawn) [compound 494, (Z)-1-(4-(difluoromethoxy)phenyl)-N-(3-(1-fluoroprop-1-en-1-yl)phenyl)-3-methyl-5-oxo-4,5-dihydro-1H-pyrazole-4-carboxamide] | 0.01 to 6
23 | CC1=NN(c2ccc(OC(F)F)cc2)C(=O)C1C(=O)Nc1cccc(C(F)=C(C)C)c1 (stereo not drawn) [compound 496, 1-[4-(difluoromethoxy)phenyl]-N-[3-(1-fluoro-2-methyl-prop-1-enyl)phenyl]-3-methyl-5-oxo-4H-pyrazole-4-carboxamide] | 6 to 100
24 | CCC(F)(F)c1cccc(NC(=O)C2C(=O)N(c3ccc(OC)c(-c4ccccc4)n3)N=C2C)c1 (stereo not drawn) [compound 498, N-(3-(1,1-difluoropropyl)phenyl)-1-(5-methoxy-6-phenylpyridin-2-yl)-3-methyl-5-oxo-4,5-dihydro-1H-pyrazole-4-carboxamide] | 0.01 to 6
25 | CCC(F)(F)c1cccc(NC(=O)C2C(=O)N(c3ccc4cn[nH]c4c3)N=C2C)c1 (stereo not drawn) [compound 499, N-[3-(1,1-difluoropropyl)phenyl]-1-(1H-indazol-6-yl)-3-methyl-5-oxo-4H-pyrazole-4-carboxamide] | 0.01 to 6
26 | CCC(F)(F)c1cccc(NC(=O)C2C(=O)N(c3ccc4nc[nH]c4c3)N=C2C)c1 (stereo not drawn) [compound 500, 1-(1H-benzo[d]imidazol-6-yl)-N-(3-(1,1-difluoropropyl)phenyl)-3-methyl-5-oxo-4,5-dihydro-1H-pyrazole-4-carboxamide] | 0.01 to 6
27 | CC1=NN(c2ccc(OC(F)F)cc2)C(=O)C1C(=O)Nc1cncc(C#N)c1 (stereo not drawn) [compound 503, N-(5-cyanopyridin-3-yl)-1-(4-(difluoromethoxy)phenyl)-3-methyl-5-oxo-4,5-dihydro-1H-pyrazole-4-carboxamide] | 100 to 1000
28 | CCC(F)(F)c1cccc(NC(=O)C2C(=O)N(c3cc4[nH]ccc4cn3)N=C2C)c1 (stereo not drawn) [compound 507, N-(3-(1,1-difluoropropyl)phenyl)-3-methyl-5-oxo-1-(1H-pyrrolo[3,2-c]pyridin-6-yl)-4,5-dihydro-1H-pyrazole-4-carboxamide] | 0.01 to 6
29 | CCC(F)(F)c1cccc(NC(=O)C2C(=O)N(c3ccc(S(C)(=O)=O)cc3)N=C2C)c1 (stereo not drawn) [compound 508, N-(3-(1,1-difluoropropyl)phenyl)-3-methyl-1-(4-(methylsulfonyl)phenyl)-5-oxo-4,5-dihydro-1H-pyrazole-4-carboxamide] | 0.01 to 6
30 | CCC(F)(F)c1cccc(NC(=O)C2C(=O)N(c3ccc(OC)nn3)N=C2C)c1 (stereo not drawn) [compound 510, N-(3-(1,1-difluoropropyl)phenyl)-1-(6-methoxypyridazin-3-yl)-3-methyl-5-oxo-4,5-dihydro-1H-pyrazole-4-carboxamide] | 0.01 to 6
31 | CCC(F)(F)c1cncc(NC(=O)C2C(=O)N(c3ccc(OC(F)F)cc3)N=C2C)c1 (stereo not drawn) [compound 511, 1-(4-(difluoromethoxy)phenyl)-N-(5-(1,1-difluoropropyl)pyridin-3-yl)-3-methyl-5-oxo-4,5-dihydro-1H-pyrazole-4-carboxamide] | 0.01 to 6
32 | CCC(F)(F)c1cccc(NC(=O)C2C(=O)N(c3ccc(OC)cc3)N=C2C(C)=O)c1 (stereo not drawn) [compound 529, 3-acetyl-N-(3-(1,1-difluoropropyl)phenyl)-1-(4-methoxyphenyl)-5-oxo-4,5-dihydro-1H-pyrazole-4-carboxamide] | 100 to 1000
33 | CCC(F)(F)c1cccc(NC(=O)C2C(=O)N(c3ccc(OC)c(-c4cc(C)nc(C)c4)c3)N=C2C)c1 (stereo not drawn) [compound 531, N-(3-(1,1-difluoropropyl)phenyl)-1-(3-(2,6-dimethylpyridin-4-yl)-4-methoxyphenyl)-3-methyl-5-oxo-4,5-dihydro-1H-pyrazole-4-carboxamide] | 0.01 to 6
